Experimental data as given in PubChem BioAssay (NCI).
Several values for one entry are separate records, joined by “and”; a condition that tells them apart may be missing. Identical values can stand only once.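 How tested: cells in 96-well plates exposed to compound for 48 hours at five concentrations. Here, GI50 denotes the concentration required for 50% inhibition of growth. TGI: total growth inhibition.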

Tests used:
Assay in all cases: NCI tumour cell line growth inhibition, 48 h
SF-268 CNS = tested on: SF-268 CNS
SK-MEL-5 melanoma = tested on: SK-MEL-5 melanoma
OVCAR-4 ovarian = tested on: OVCAR-4 ovarian
NCI-H460 lung = tested on: NCI-H460 lung
LOX IMVI melanoma = tested on: LOX IMVI melanoma
ACHN renal = tested on: ACHN renal
SR leukemia = tested on: SR leukemia
HL-60(TB) leukemia = tested on: HL-60(TB) leukemia
RXF 393 renal = tested on: RXF 393 renal
HT29 colon = tested on: HT29 colon

## CN(C)C(=S)/N=c1\ss/c(=N\S(=O)(=O)c2ccccc2)n1C
SF-268 CNS
  TGI: > 100 µM
SK-MEL-5 melanoma
  TGI: > 100 µM
OVCAR-4 ovarian
  TGI: > 100 µM
NCI-H460 lung
  TGI: > 100 µM
LOX IMVI melanoma
  TGI: > 100 µM
ACHN renal
  TGI: > 100 µM
SR leukemia
  TGI: > 100 µM
HL-60(TB) leukemia
  TGI: > 100 µM
RXF 393 renal
  TGI: > 100 µM
HT29 colon
  TGI: > 100 µM

## O=C(/C=C/c1ccc(Cl)cc1Cl)c1ccc(Cl)cc1Cl
SF-268 CNS
  GI50: > 63.3 µM
  TGI: > 100 µM
SK-MEL-5 melanoma
  GI50: 16.7 µM
  TGI: 36.4 µM
OVCAR-4 ovarian
  GI50: 26.6 µM
  TGI: 88.5 µM
NCI-H460 lung
  GI50: 42.1 µM
  TGI: > 100 µM
LOX IMVI melanoma
  GI50: 15.8 µM
  TGI: 30.1 µM
ACHN renal
  GI50: 22.1 µM
  TGI: 47.9 µM
SR leukemia
  GI50: 3330 nM
  TGI: 14.9 µM
HL-60(TB) leukemia
  GI50: 18.3 µM
  TGI: 43.9 µM
RXF 393 renal
  GI50: 16.7 µM
  TGI: 36.3 µM
HT29 colon
  GI50: 15.2 µM
  TGI: > 60.1 µM

## CN(C)CCOc1ccc2c(c1)C(=O)/C(=C\c1ncc([N+](=O)[O-])n1C)C2
SF-268 CNS
  GI50: 0.489 µM
  TGI: 3.11 µM
SK-MEL-5 melanoma
  GI50: 0.179 µM
  TGI: 0.402 µM
OVCAR-4 ovarian
  GI50: 0.529 µM
  TGI: 3.53 µM
NCI-H460 lung
  GI50: 0.217 µM
  TGI: 0.808 µM
LOX IMVI melanoma
  GI50: 0.331 µM
  TGI: 1.85 µM
ACHN renal
  GI50: 0.298 µM
  TGI: 2.37 µM
SR leukemia
  GI50: 416 nM
  TGI: 0.96 µM
HL-60(TB) leukemia
  GI50: 0.235 µM
  TGI: 1.09 µM
RXF 393 renal
  GI50: 0.316 µM
  TGI: 1.25 µM
HT29 colon
  GI50: 0.346 µM
  TGI: 2.25 µM

## CCCC(=O)OC(OC(=O)CCC)c1ccc([N+](=O)[O-])o1
SF-268 CNS
  TGI: > 100 µM
SK-MEL-5 melanoma
  TGI: > 100 µM
NCI-H460 lung
  TGI: > 100 µM
LOX IMVI melanoma
  TGI: 58.5 µM
ACHN renal
  TGI: 49.9 µM
SR leukemia
  TGI: 53.1 µM
HL-60(TB) leukemia
  TGI: 88.3 µM
RXF 393 renal
  TGI: 54 µM
HT29 colon
  TGI: 42.8 µM

## CN1C/C(=C\c2ccc(C(=O)O)cc2)C(=O)/C(=C/c2ccc(C(=O)O)cc2)C1
SF-268 CNS
  TGI: > 100 µM
SK-MEL-5 melanoma
  TGI: > 100 µM
OVCAR-4 ovarian
  TGI: > 100 µM
NCI-H460 lung
  TGI: > 100 µM
LOX IMVI melanoma
  TGI: > 100 µM
ACHN renal
  TGI: > 100 µM
SR leukemia
  TGI: > 100 µM
HL-60(TB) leukemia
  TGI: > 100 µM
RXF 393 renal
  TGI: > 100 µM
HT29 colon
  TGI: > 100 µM

## N#CC(C#N)C(c1ccccc1)c1ccccc1
SF-268 CNS
  TGI: > 100 µM
SK-MEL-5 melanoma
  TGI: > 100 µM
OVCAR-4 ovarian
  TGI: > 100 µM
NCI-H460 lung
  TGI: > 100 µM
LOX IMVI melanoma
  TGI: > 100 µM
ACHN renal
  TGI: > 100 µM
SR leukemia
  TGI: > 100 µM
HL-60(TB) leukemia
  TGI: > 100 µM
RXF 393 renal
  TGI: > 100 µM

## CC(=O)/C(=C/N1CCN(C(=O)c2ccco2)C1=S)C(=O)c1ccccc1
SF-268 CNS
  GI50: 10.7 µM
  TGI: 27 µM
SK-MEL-5 melanoma
  GI50: 8.12 µM
  TGI: 15.4 µM
OVCAR-4 ovarian
  GI50: 20.1 µM
  TGI: 37.4 µM
NCI-H460 lung
  GI50: 7.04 µM
  TGI: 22.9 µM
LOX IMVI melanoma
  GI50: 8.91 µM
  TGI: 20.4 µM
ACHN renal
  GI50: 6.9 µM
  TGI: 17.6 µM
SR leukemia
  GI50: 2710 nM
  TGI: 13.4 µM
HL-60(TB) leukemia
  GI50: 8.19 µM
  TGI: 19.3 µM
HT29 colon
  GI50: 16.9 µM
  TGI: > 50 µM

## N#CNC1=NCCC(=O)N1CCc1c[nH]c2ccccc12
SF-268 CNS
  TGI: > 100 µM
SK-MEL-5 melanoma
  TGI: > 100 µM
OVCAR-4 ovarian
  TGI: > 100 µM
LOX IMVI melanoma
  TGI: > 100 µM
SR leukemia
  TGI: > 100 µM
HL-60(TB) leukemia
  TGI: > 100 µM
RXF 393 renal
  TGI: > 100 µM
HT29 colon
  TGI: > 100 µM

## COc1ccc2c(c1)C=CC1C2CC[C@]2(C)C(NC(=O)/C=C/c3ccc(O)c(O)c3)CCC12 (some centres undefined)
SF-268 CNS
  GI50: 17.2 µM
  TGI: 33 µM
SK-MEL-5 melanoma
  GI50: 14.9 µM
  TGI: 40.1 µM
NCI-H460 lung
  GI50: 3.93 µM
  TGI: 14.4 µM
LOX IMVI melanoma
  GI50: 6.45 µM
  TGI: 20.2 µM
ACHN renal
  GI50: 7.5 µM
  TGI: 19.8 µM
SR leukemia
  GI50: 4060 nM
  TGI: 17.1 µM
HL-60(TB) leukemia
  GI50: 5.01 µM
  TGI: 23.8 µM
RXF 393 renal
  GI50: 17.6 µM
  TGI: 45.8 µM

## N#C/C(=C1\OC(N)=C(c2ccc(Cl)cc2)C1=O)c1ccc(Cl)cc1
SF-268 CNS
  TGI: > 100 µM
OVCAR-4 ovarian
  TGI: 32 µM
NCI-H460 lung
  TGI: 34 µM
LOX IMVI melanoma
  TGI: 31.4 µM
ACHN renal
  TGI: 33.1 µM
SR leukemia
  TGI: 54.7 µM
HL-60(TB) leukemia
  TGI: 44.4 µM
RXF 393 renal
  TGI: 25.4 µM
HT29 colon
  TGI: 39.5 µM

## COc1ccc(F)cc1-c1ccnc2[nH]c(C3=CCN(C4CCC(CC(=O)O)CC4)CC3)cc12 (centres undefined)
SF-268 CNS
  GI50: 0.144 µM
  TGI: 17.7 µM
SK-MEL-5 melanoma
  GI50: 0.121 µM
  TGI: 0.389 µM
OVCAR-4 ovarian
  GI50: 0.282 µM
  TGI: 6.44 µM
NCI-H460 lung
  GI50: 0.236 µM
  TGI: > 100 µM
ACHN renal
  GI50: 0.243 µM
  TGI: > 100 µM
SR leukemia
  GI50: 29.5 nM
  TGI: > 100 µM
HL-60(TB) leukemia
  GI50: 0.0739 µM
  TGI: 1.45 µM
RXF 393 renal
  GI50: 0.0413 µM
  TGI: 0.216 µM
HT29 colon
  GI50: 0.234 µM
  TGI: 3.93 µM

## CN(C)Cc1cc(C(C)(C)C)cc(CN(C)C)c1O
SF-268 CNS
  TGI: > 100 µM
SK-MEL-5 melanoma
  TGI: > 100 µM
OVCAR-4 ovarian
  TGI: > 100 µM
NCI-H460 lung
  TGI: > 100 µM
LOX IMVI melanoma
  TGI: > 100 µM
ACHN renal
  TGI: > 100 µM
SR leukemia
  TGI: > 100 µM
RXF 393 renal
  TGI: > 100 µM
HT29 colon
  TGI: > 100 µM

## Cc1nc(-n2nc(-c3ccccc3)cc2-c2ccccc2)sc1C(=O)CC(=O)C(=O)Nc1ccc(O)cc1
SF-268 CNS
  TGI: > 100 µM
OVCAR-4 ovarian
  TGI: > 100 µM
LOX IMVI melanoma
  TGI: > 100 µM
ACHN renal
  TGI: > 100 µM
SR leukemia
  TGI: > 100 µM
HL-60(TB) leukemia
  TGI: > 100 µM
RXF 393 renal
  TGI: > 100 µM
HT29 colon
  TGI: > 100 µM

## CCOC(=O)CC(C)C1(C=O)CCCCC1=O (centres undefined)
SF-268 CNS
  TGI: > 100 µM
SK-MEL-5 melanoma
  TGI: > 100 µM
OVCAR-4 ovarian
  TGI: > 100 µM
NCI-H460 lung
  TGI: > 100 µM
LOX IMVI melanoma
  TGI: 34 µM
ACHN renal
  TGI: > 100 µM
SR leukemia
  TGI: 49.8 µM
HL-60(TB) leukemia
  TGI: > 100 µM
RXF 393 renal
  TGI: > 100 µM

## c1ccc(-c2cc3n4c(-c5ccccc5)nn(-c5ccccc5)c4cnc-3n2)cc1
SF-268 CNS
  GI50: 10.1 µM
  TGI: > 50 µM
SK-MEL-5 melanoma
  GI50: > 50 µM
  TGI: > 50 µM
OVCAR-4 ovarian
  GI50: 31.3 µM
  TGI: > 50 µM
LOX IMVI melanoma
  GI50: > 50 µM
  TGI: > 50 µM
ACHN renal
  GI50: > 50 µM
  TGI: > 50 µM
SR leukemia
  GI50: > 50000 nM
  TGI: > 50 µM
HL-60(TB) leukemia
  GI50: > 50 µM
  TGI: > 50 µM
RXF 393 renal
  GI50: 4.16 µM
  TGI: 33.8 µM
HT29 colon
  GI50: > 50 µM
  TGI: > 50 µM

## CCCCCC/C(CC(=O)CCC(=O)NCCc1ccccc1)=N\Nc1ccc([N+](=O)[O-])cc1[N+](=O)[O-]
SF-268 CNS
  TGI: > 100 µM
SK-MEL-5 melanoma
  TGI: > 100 µM
NCI-H460 lung
  TGI: > 100 µM
LOX IMVI melanoma
  TGI: > 100 µM
ACHN renal
  TGI: > 100 µM
SR leukemia
  TGI: 67.7 µM
HL-60(TB) leukemia
  TGI: 70.5 µM
RXF 393 renal
  TGI: > 100 µM
HT29 colon
  TGI: > 100 µM

## C=Cc1cc(OC)c2c(c1)c(=O)oc1c2cc(OC)c2c(O)ccc(C3OC(C(C)O)C(O)C3O)c21 (centres undefined)
SF-268 CNS
  GI50: 0.00456 µM
  TGI: 0.117 µM
SK-MEL-5 melanoma
  GI50: 0.00775 µM
  TGI: 0.0555 µM
OVCAR-4 ovarian
  GI50: 0.053 µM
  TGI: 0.703 µM
NCI-H460 lung
  GI50: 0.00573 µM
  TGI: 0.166 µM
SR leukemia
  GI50: 0.0483 nM and 0.209 nM
  TGI: 0.00406 µM
HL-60(TB) leukemia
  GI50: 0.00216 µM
  TGI: 0.0197 µM
RXF 393 renal
  GI50: 0.00181 µM
  TGI: 0.00384 µM
HT29 colon
  GI50: 0.00666 µM
  TGI: > 1 µM

## O=C(CCc1cc(-c2ccc(F)cc2)n[nH]1)N(Cc1ccccc1)Cc1ccccc1
SF-268 CNS
  TGI: > 100 µM
SK-MEL-5 melanoma
  TGI: > 100 µM
NCI-H460 lung
  TGI: > 100 µM
LOX IMVI melanoma
  TGI: > 100 µM
ACHN renal
  TGI: > 100 µM
SR leukemia
  TGI: 81.1 µM
RXF 393 renal
  TGI: > 100 µM
HT29 colon
  TGI: > 100 µM
